The text below walks through data of article PMC6002545, “Deciphering the late steps of rifamycin biosynthesis” (Nature Communications, 2018).

The test addresses T1, Rif16 (Amycolatopsis mediterranei, UniProt A0A0H3CVZ6).
T1 construct: gene AMED_0653; N-terminally His6-tagged Rif16 (rif16 from A. mediterranei S699)
Briefly: Type I spectral substrate binding titration; co-crystal structure at […] Å.

T1 sequence (A0A0H3CVZ6 entry or part of it): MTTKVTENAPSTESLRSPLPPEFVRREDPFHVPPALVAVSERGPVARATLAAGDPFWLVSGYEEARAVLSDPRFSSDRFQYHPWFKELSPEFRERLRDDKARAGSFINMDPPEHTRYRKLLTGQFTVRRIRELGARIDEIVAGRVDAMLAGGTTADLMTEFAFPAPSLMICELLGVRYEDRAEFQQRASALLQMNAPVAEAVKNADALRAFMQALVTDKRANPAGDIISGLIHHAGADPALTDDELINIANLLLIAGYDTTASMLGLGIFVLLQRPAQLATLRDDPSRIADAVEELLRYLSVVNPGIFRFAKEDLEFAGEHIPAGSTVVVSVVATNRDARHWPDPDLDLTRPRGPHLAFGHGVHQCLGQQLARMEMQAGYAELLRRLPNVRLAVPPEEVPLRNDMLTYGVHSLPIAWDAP

One may read the Kd as the constant that tells how readily two partners part at equilibrium. High values mean a looser complex, low ones a tighter complex. Compound `CO[C@H]1/C=C/O[C@@]2(C)Oc3c(C)c(O)c4c(O)c(cc(OC(=O)CO)c4c3C2=O)NC(=O)/C(C)=C/C=C/[C@H](C)[C@H](O)[C@@H](C)[C@@H](O)[C@@H](C)[C@H](OC(C)=O)[C@@H]1C` [R-L, rifamycin L] registered a Kd of 1300 ± 100 nM.
